In US20030191147A1, “Opioid antagonist compositions and dosage forms” (priority 2002, published 2003):

What was measured:
[1] = tested on: postsurgical patients; conditions: PCA/IV morphine with low dose IV antagonist; cited from earlier work
[2] = tested on: moderate to severe pain following dental surgery; test: Dose ranging clinical study of morphine 60 mg with NTX 0.1, 0.01 or 0.001 mg, and NTX alone; type: in vivo, human; conditions: NTX 0.01 mg alone, among treatment groups
Description: In a dose ranging study, doses of morphine sulfate (60 mg) in combination with naltrexone hydrochloride (0.1 mg, 0.01 mg, or 0.001 mg) were administered for moderate to severe pain in patients following dental surgery. This study was performed to investigate the analgesic efficacy (onset, peak, duration, and total effect) of morphine alone, naltrexone alone, three different doses of naltrexone in combination with morphine and placebo.
The 300 subject study was designed with six treatment groups: A) placebo (50 pts); B) morphine 60 mg (50 pts); C) naltrexone 0.01 mg (50 pts); D) morphine 60 mg and naltrexone 0.1 mg (50 pts); E) morphine 60 mg and naltrexone 0.01 mg (50 pts); F) morphine 60 mg and naltrexone 0.001 mg (50 pts). In this study, in the treatment of moderate to severe pain following extraction of 3 or 4 full or partial bony impacted third molars, a single oral dose of one of the treatments was administered when the patient was suffering moderate to severe postoperative pain. The observation period for efficacy was 8 hours post treatment, and for safety was 24 hours post treatment.
The efficacy and safety evaluations included pain intensity, pain relief, global pain evaluation, evaluation of time to meaningful pain relief (stopwatch), visual analog scale (VAS), and adverse event assessments. For the data analysis, certain pain parameters were computed as generally described above.

[3] = tested on: excitatory opioid receptors; conditions: mice, antagonist on the order of ng/kg with morphine or similar opioid agonists; cited from earlier work
[4] = Binding of drug in solution to pharmaceutical excipients
[5] = tested on: moderate to severe pain following dental surgery; test: Dose ranging clinical study of morphine 30, 60, 90 mg alone or with NTX 0.1 mg; type: in vivo, human; conditions: 30 mg, 60 mg and 90 mg MS alone compared with each other
Description: In this dose ranging study, doses of morphine sulfate (30 mg, 60 mg, and 90 mg) in combination with naltrexone hydrochloride (0.1 mg) were administered for moderate to severe pain in male patients following dental surgery. This study was performed to investigate the efficacy of combinations of different doses of morphine with naltrexone 0.1 mg, relative to placebo and relative to morphine alone, to evaluate the dose-response effects of morphine when administered alone and when coadministered with naltrexone 0.1 mg, and to examine the consistency of effect of naltrexone 0.1 mg across different doses of morphine, when coadministered with morphine.
The 210 subject study was designed with seven treatment groups: A) placebo (30 pts); B) morphine 30 mg (30 pts); C) morphine 60 mg (30 pts); D) morphine 90 mg (30 pts); E) morphine 30 mg and naltrexone 0.1 mg (30 pts); F) morphine 60 mg and naltrexone 0.1 mg (30 pts); G) morphine 90 mg and naltrexone 0.1 mg (30 pts). In this study, in the treatment of moderate to severe pain following extraction of 3 or 4 full or partial bony impacted third molars, a single oral dose of one of the treatments was administered when the patient was suffering moderate to severe postoperative pain. The observation period for efficacy was 8 hours post treatment and for safety was 24 hours post treatment. […]

[6] = excipients of Example 10, aqueous environment
[7] = excipients of Example 12, aqueous environment

SMILES: C=C1CC[C@@]2(O)[C@H]3Cc4ccc(O)c5c4[C@@]2(CCN3CC2CC2)[C@H]1O5 [nalmefene, 6-methylene-6-desoxy-N-cyclopropyl-methyl-14-hydroxydihydroxy-dihydronormorphine]
- effect on potency of morphine [1]: markedly enhanced potency of morphine

SMILES: C=CCN1CC[C@]23c4c5ccc(O)c4O[C@H]2C(=O)CC[C@@]3(O)[C@H]1C5 [naloxone, 4,5-epoxy-3,14-dihydroxy-17-(2-prophenyl)morphinan-6-one]
- effect on potency of morphine [1]: markedly enhanced potency of morphine

SMILES: Cl.O=C1CC[C@@]2(O)[C@H]3Cc4ccc(O)c5c4[C@@]2(CCN3CC2CC2)[C@H]1O5 [naltrexone hydrochloride, 17-cyclopropylmethyl-4,5α-epoxy-3,14-dihydroxymorphinan-6-one hydrochloride]
- global evaluation scores [2]: highest number of subjects who had “poor” global evaluation scores
- mean 4 hour Sum of Pain Intensity Difference (SPID) scores [2]: lowest
- mean Total Pain Relief scores [2]: lowest
- effect on analgesic potency of opioid agonists [3]: markedly enhancing the analgesic potency of opioid agonists
- fraction of drug bound by croscarmellose sodium ([4]; drug in solution mixed with croscarmellose sodium in suspension): more than 90%
- binding by the excipients used [4, 6]: not to bind
- binding by the excipients used [4, 7]: not to bind

SMILES: CN1CC[C@]23c4c5ccc(O)c4O[C@H]2[C@@H](O)C=C[C@H]3[C@H]1C5.O=S(=O)(O)O [MS, morphine sulfate]
- mean SPID scores [5]: comparable
- mean Total Pain Relief scores [5]: comparable
- binding to croscarmellose sodium ([4]; croscarmellose sodium): also bound to this excipient
- binding by the excipients used [4, 6]: not to bind
- binding by the excipients used [4, 7]: not to bind
